Drawing on US8546406B2, “Heterocyclic compounds as metap-2 inhibitors” (Merck Patent GmbH, priority 2009, dated 2013), this text covers melting point and IC50 for eleven compounds.

Sequence of MetAP-2 (P50579 whole entry, species assumed): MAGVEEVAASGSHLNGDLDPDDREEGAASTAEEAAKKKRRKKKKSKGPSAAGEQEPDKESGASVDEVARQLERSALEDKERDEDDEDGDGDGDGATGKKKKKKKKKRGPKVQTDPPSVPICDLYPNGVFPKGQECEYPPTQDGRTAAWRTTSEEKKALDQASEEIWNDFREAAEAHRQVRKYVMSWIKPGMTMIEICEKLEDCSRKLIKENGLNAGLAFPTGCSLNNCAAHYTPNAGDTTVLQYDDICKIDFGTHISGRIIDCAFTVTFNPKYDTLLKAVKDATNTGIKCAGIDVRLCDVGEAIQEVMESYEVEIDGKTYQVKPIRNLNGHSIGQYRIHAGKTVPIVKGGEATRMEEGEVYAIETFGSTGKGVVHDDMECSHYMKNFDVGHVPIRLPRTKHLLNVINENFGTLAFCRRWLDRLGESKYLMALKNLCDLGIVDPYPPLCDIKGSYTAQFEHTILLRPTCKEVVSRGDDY

Test system in one data set: not given
Assay: not given
Conditions: not given
One may read the melting point as the temperature of the solid-liquid transition. On to `c1cnn(-c2ccnc3ncnn23)c1` [Compound A2, 7-pyrazol-1-yl-[1,2,4]triazolo[1,5-a]pyrimidine], for which the melting point was 191 to 193 °C.

The compound `c1cc(OC[C@H]2CCCN2c2ccnc3ncnn23)c2cccnc2c1` [Compound A5, 5-((R)-1-[1,2,4]triazolo[1,5-a]pyrimidin-7-ylpyrrolidin-2-ylmethoxy)quinoline] came in with a melting point of 93 to 95 °C.

The target in a further data set is MetAP-2 (Homo sapiens, UniProt P50579). Nature of the data set: MetAP-2 activity measurement (coupled enzymatic reactions, substrate Met-Arg-Ser, photometric at 450 nm). The format is biochemical. As to conditions: Inhibition of MetAP-2; read-out: IC50 enzyme. The protocol:
The MetAP-2 activity is determined by coupling enzymatic reactions. The tripeptide Met-Arg-Ser (MAS) is employed as substrate. The methionine liberated is firstly converted into Metox and H2O2 by L-aminooxidase (AAO). In the second step, the peroxidase (POD) with the aid of the H2O2 catalyses the oxidation of the leukodye dianisidine to dianisidineox, the increase of which is detected photometrically at 450 nm.
MetAP-2 activity can be recorded continuously as kinetics. The reaction scheme illustrates that one mol of dianisidineox is formed per mol of methionene. The MetAP-2 enzyme activity can therefore be calculated directly as Δ absorption per time unit. Qualification of the MetAP-2 activity (mol of Met/time unit) is possible with the aid of the dianisidineox extinction coefficient. The change in extinction per time unit is depicted graphically and a slope calculation is carried out in the visually linear region of the reaction.
One may read the IC50 as the midpoint of a concentration-inhibition curve. For the compound `c1cnn(-c2ccnc3ncnn23)c1` [Compound A2, 7-pyrazol-1-yl-[1,2,4]triazolo[1,5-a]pyrimidine], the concentration for half-maximal inhibition (IC50) was > 10 µM.

As to `c1cc(OC[C@H]2CCCN2c2ccnc3ncnn23)c2cccnc2c1` [Compound A5, 5-((R)-1-[1,2,4]triazolo[1,5-a]pyrimidin-7-ylpyrrolidin-2-ylmethoxy)quinoline], the IC50 is 0.01 to 1 µM.

Consider `NCCCOC(=O)N1CCc2cccc(OC[C@H]3CCCN3c3ccnc4ncnn34)c2C1` [Compound A75], for which the 50% inhibitory concentration (IC50) lay in the range of 0.01 to 1 µM.

On to `NCCCN1CCc2cccc(OC[C@H]3CCCN3c3ccnc4ncnn34)c2C1` [Compound A76], for which the IC50 lay within 0.01 to 1 µM.

In the case of `O=C1c2ccccc2C(=O)N1C[C@H]1CCCN1c1ccnc2ncnn12` [Compound A78], the 50% inhibitory concentration (IC50) fell in the range of 1 to 10 µM.

Take `N#Cc1cccc(C(=O)OC[C@H]2CCCN2c2ccnc3ncnn23)c1` [Compound A79, (R)-1-[1,2,4]Triazolo[1,5-a]pyrimidin-7-yl-pyrrolidin-2-ylmethyl 3-cyanobenzoate]: the concentration for half-maximal inhibition (IC50) lay within 0.01 to 1 µM.

For `Nc1nc2nccc(N3CCC[C@@H]3COc3cccc4ccccc34)n2n1` [Compound A80], the IC50 was in the range of 1 to 10 µM.

Turning to `COC(=O)c1ccc2[nH]c(CC3CCCN3c3ccnc4ncnn34)cc2c1` (stereo not shown) [Compound A81], the IC50 lay in the range of 0.01 to 1 µM.

As for `O=C(OC[C@H]1CCCN1c1ccnc2ncnn12)c1cccc(OC(F)(F)F)c1` [Compound A82, (R)-1-[1,2,4]Triazolo[1,5-a]pyrimidin-7-yl-pyrrolidin-2-ylmethyl 3-trifluoromethoxy-benzoate], the IC50 lay within 0.01 to 1 µM.

As for `OC[C@H]1CCCN1c1ccnc2ncnn12` [Compound A83], the IC50 lay within 0.01 to 1 µM.

Regarding `O=S(=O)(NC[C@H]1CCCN1c1ccnc2ncnn12)c1ccc(F)cc1` [Compound A84], the IC50 was in the range of 1 to 10 µM.
